The values that follow come from patent US20130071340A1, “POLYOL PARTIAL ESTERS FOR USE IN COSMETICS” (priority 2010, published 2013).

Series [1] in a line: UV filter solubility in the emollients. Format: physicochemical. The following applies: maximum soluble amount of ethylhexyl triazone (Uvinul T 150) in the emollient at 22 °C. The text has this: This operation was repeated until the maximum soluble amount of the UV filter was exceeded. At higher concentrations, often a longer stirring time of several hours is necessary for complete dissolution. When in this way the maximum concentration had been determined approximately, for fine determination the concentration range was repeated around this maximum concentration with smaller initial weighed amounts of the UV filter.

Read-outs that look alike come from different tables or passages of the source.

Consider `CCCCCCCC(=O)OCC(O)CO` (centres unmarked) [Glyceryl monocaprylate], for which the “Solubility in wt % in the test emollients” value is “at 75% solid,” (test emollient: Isohexadecane), <5% wt % (test emollient: Mineral oil), “at 75% solid,” (test emollient: Octyldodecanol) and <50% wt % (test emollient: Oleyl erucate).

Consider PPG-15 stearyl ether, for which, in series [1], the “UV filter solubility: Ethylhexyl triazone” value was determined as 7.0%.
